Source: ChEMBL document CHEMBL1201862, “PubChem BioAssay data set” (2004)
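Grown in 96-well plates, cells were treated for 48 hours with each compound at five concentrations. Insufficient inhibition: endpoint recorded as highest concentration tested. The concentration for 50% growth inhibition is given as GI50.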 Activity calls are given as the source filed them. Rule as the data show it: active = GI50 up to about 1.1 µM and inactive = higher.

Tests used:
Assay in all cases: NCI anticancer screen, dose series, 48 h
[1] = test system: SK-MEL-28
[2] = test system: U-251
[3] = test system: SN12C
[4] = test system: A549
[5] = test system: KM12
[6] = test system: LOX IMVI
[7] = test system: MOLT-4
[8] = test system: K562
[9] = test system: SK-MEL-5
[10] = test system: CCRF-CEM
[11] = test system: RXF 393
[12] = test system: OVCAR-3
[13] = test system: NCI-H522
[14] = test system: HCT-15
[15] = test system: UO-31
[16] = test system: SK-OV-3
[17] = test system: SF-295
[18] = test system: KM-20L2
[19] = test system: DLD-1
[20] = test system: A498
[21] = test system: UACC-62
[22] = test system: IGROV-1
[23] = test system: NCI-H460
[24] = test system: SR
[25] = test system: NCI-H23
[26] = test system: COLO 205
[27] = test system: SNB-78
[28] = test system: SNB-19
[29] = test system: HT-29
[30] = test system: OVCAR-5
[31] = test system: HOP-18
[32] = test system: XF498
[33] = test system: SF-268
[34] = test system: HOP-62
[35] = test system: SK-MEL-2
[36] = test system: DMS-114
[37] = test system: SW-620
[38] = test system: LXFL 529
[39] = test system: SNB-75
[40] = test system: HCC 2998
[41] = test system: HL-60
[42] = test system: UACC-257
[43] = test system: RPMI-8226
[44] = test system: CAKI-1
[45] = test system: M19-MEL
[46] = test system: M14
[47] = test system: RXF 631
[48] = test system: HCT-116
[49] = test system: SF-539
[50] = test system: EKVX
[51] = test system: NCI-H226
[52] = test system: 786-0
[53] = test system: DMS-273
[54] = test system: ACHN
[55] = test system: OVCAR-4
[56] = test system: TK-10
[57] = test system: Malme-3M
[58] = test system: OVCAR-8
[59] = test system: MDA-N
[60] = test system: HOP-92
[61] = test system: T47D
[62] = test system: MCF7
[63] = test system: PC-3
[64] = test system: Hs-578T
[65] = test system: BT-549
[66] = test system: DU-145
[67] = test system: MDA-MB-231

## [O-][S+]1c2ccccc2N=C(c2cccc3ccccc23)CC1c1cccc2ccccc12 (stereo unspecified)
[1]
  GI50: 0.91 µM (active)
[2]
  GI50: 18.6 µM (inactive)
[3]
  GI50: 16.6 µM (inactive)
[4]
  GI50: 18.8 µM (inactive)
[5]
  GI50: 15.2 µM (inactive)
[6]
  GI50: 13.6 µM (inactive)
[7]
  GI50: 20.3 µM (inactive)
[8]
  GI50: 30.8 µM (inactive)
[9]
  GI50: 5.52 µM (inactive)
[10]
  GI50: 20.5 µM (inactive)
[11]
  GI50: 22.6 µM (inactive)
[12]
  GI50: 19.1 µM (inactive)
[13]
  GI50: 15 µM (inactive)
[14]
  GI50: 15.1 µM
[15]
  GI50: 23.9 µM (inactive)
[16]
  GI50: 32.9 µM (inactive)
[17]
  GI50: 32.1 µM (inactive)
[18]
  GI50: 36.3 µM (inactive)
[19]
  GI50: 18.4 µM (inactive)
[20]
  GI50: 21.7 µM (inactive)
[21]
  GI50: 12.6 µM (inactive)
[22]
  GI50: 15.1 µM (inactive)
[23]
  GI50: 15 µM (inactive)
[24]
  GI50: 24.1 µM (inactive)
[25]
  GI50: 20.3 µM (inactive)
[26]
  GI50: 20.9 µM (inactive)
[27]
  GI50: 39 µM (inactive)
[28]
  GI50: 21 µM (inactive)
[29]
  GI50: 25.7 µM (inactive)
[30]
  GI50: 31.6 µM (inactive)
[31]
  GI50: 12.2 µM (inactive)
[32]
  GI50: 20.6 µM (inactive)
[33]
  GI50: 22.2 µM (inactive)
[34]
  GI50: 34.2 µM (inactive)
[35]
  GI50: 17.5 µM (inactive)
[36]
  GI50: 16.5 µM (inactive)
[37]
  GI50: 17.7 µM (inactive)
[38]
  GI50: 17.5 µM (inactive)
[39]
  GI50: 23.1 µM (inactive)
[40]
  GI50: 17.2 µM (inactive)
[41]
  GI50: 10.8 µM (inactive)
[42]
  GI50: 17.1 µM (inactive)
[43]
  GI50: 19.8 µM (inactive)
[44]
  GI50: 24.8 µM (inactive)
[45]
  GI50: 2.01 µM (inactive)
[46]
  GI50: 14.5 µM (inactive)
[47]
  GI50: 36.4 µM (inactive)
[48]
  GI50: 17.3 µM (inactive)
[49]
  GI50: 19.5 µM (inactive)
[50]
  GI50: 21.4 µM (inactive)
[51]
  GI50: 21.1 µM (inactive)
[52]
  GI50: 24.5 µM (inactive)
[53]
  GI50: 29.6 µM (inactive)
[54]
  GI50: 23.1 µM (inactive)
[55]
  GI50: 12.8 µM (inactive)
[56]
  GI50: 31.2 µM (inactive)
[57]
  GI50: 22.9 µM (inactive)
[58]
  GI50: 18.9 µM (inactive)

## O=C1C=CC2(C=C1)C[C@H](NC(=O)OCc1ccccc1)C(=O)O2
[59]
  GI50: 14.8 µM (inactive)
[1]
  GI50: 13 µM (inactive)
[2]
  GI50: 19.3 µM (inactive)
[3]
  GI50: 18.2 µM (inactive)
[4]
  GI50: 38.1 µM (inactive)
[5]
  GI50: 18.9 µM (inactive)
[6]
  GI50: 9.93 µM (inactive)
[7]
  GI50: 1.8 µM (inactive)
[8]
  GI50: 3.08 µM (inactive)
[9]
  GI50: 21.9 µM (inactive)
[10]
  GI50: 1.08 µM (active)
[11]
  GI50: 10.2 µM (inactive)
[12]
  GI50: 15.5 µM (inactive)
[13]
  GI50: 3.3 µM (inactive)
[14]
  GI50: 11 µM
[15]
  GI50: 20.2 µM (inactive)
[16]
  GI50: > 67.1 µM (inactive)
[17]
  GI50: 26.1 µM (inactive)
[18]
  GI50: 19 µM (inactive)
[19]
  GI50: 5.53 µM (inactive)
[20]
  GI50: > 61.7 µM (inactive)
[21]
  GI50: 17.3 µM (inactive)
[22]
  GI50: 19.8 µM (inactive)
[23]
  GI50: 24.3 µM (inactive)
[24]
  GI50: 1.08 µM (active)
[60]
  GI50: 16.3 µM (inactive)
[61]
  GI50: 15.9 µM (inactive)
[62]
  GI50: 11.2 µM (inactive)
[25]
  GI50: 16.1 µM (inactive)
[26]
  GI50: 5.93 µM (inactive)
[27]
  GI50: 24.5 µM (inactive)
[28]
  GI50: 99.5 µM (inactive)
[29]
  GI50: 13.8 µM (inactive)
[30]
  GI50: 20.1 µM (inactive)
[31]
  GI50: 16.7 µM (inactive)
[32]
  GI50: 17.8 µM (inactive)
[33]
  GI50: 17.2 µM (inactive)
[34]
  GI50: > 54.2 µM (inactive)
[35]
  GI50: 19.3 µM (inactive)
[63]
  GI50: 16.1 µM (inactive)
[36]
  GI50: 20.3 µM (inactive)
[37]
  GI50: 4.31 µM (inactive)
[38]
  GI50: 12.1 µM (inactive)
[39]
  GI50: 25.1 µM (inactive)
[40]
  GI50: 19.7 µM (inactive)
[41]
  GI50: 2.04 µM (inactive)
[42]
  GI50: 16.9 µM (inactive)
[64]
  GI50: 40.6 µM (inactive)
[65]
  GI50: 18 µM (inactive)
[43]
  GI50: 3.6 µM (inactive)
[44]
  GI50: 18 µM (inactive)
[45]
  GI50: 18.4 µM (inactive)
[46]
  GI50: 15.5 µM (inactive)
[47]
  GI50: 19.6 µM (inactive)
[48]
  GI50: 16 µM (inactive)
[49]
  GI50: 22.4 µM (inactive)
[50]
  GI50: 12.9 µM (inactive)
[51]
  GI50: 62.4 µM (inactive)
[66]
  GI50: 30.5 µM (inactive)
[52]
  GI50: 14.3 µM (inactive)
[53]
  GI50: 18.3 µM (inactive)
[54]
  GI50: 15.8 µM (inactive)
[55]
  GI50: 18.2 µM (inactive)
[56]
  GI50: 15.2 µM (inactive)
[57]
  GI50: 13 µM (inactive)
[58]
  GI50: 16 µM (inactive)
[67]
  GI50: 17.5 µM (inactive)

## O/N=C1/C(=C/c2ccc(Oc3ccccc3)cc2)CCCC1C(NO)c1ccc(Oc2ccccc2)cc1 (stereo unspecified)
[1]
  GI50: 61.2 µM (inactive)
[2]
  GI50: 51.2 µM (inactive)
[3]
  GI50: 22.8 µM (inactive)
[4]
  GI50: 13.8 µM (inactive)
[5]
  GI50: 22.3 µM (inactive)
[6]
  GI50: 13.6 µM (inactive)
[7]
  GI50: 4.43 µM (inactive)
[8]
  GI50: 19.8 µM (inactive)
[9]
  GI50: 13.4 µM (inactive)
[10]
  GI50: 12.2 µM (inactive)
[11]
  GI50: 14.5 µM (inactive)
[12]
  GI50: 32 µM (inactive)
[14]
  GI50: 47 µM
[15]
  GI50: 21 µM (inactive)
[16]
  GI50: > 100 µM (inactive)
[17]
  GI50: 41.6 µM (inactive)
[18]
  GI50: 11.2 µM (inactive)
[19]
  GI50: 66.1 µM (inactive)
[21]
  GI50: 43.9 µM (inactive)
[22]
  GI50: 29.1 µM (inactive)
[23]
  GI50: 27.9 µM (inactive)
[60]
  GI50: 17.9 µM (inactive)
[25]
  GI50: 16.9 µM (inactive)
[26]
  GI50: 19.3 µM (inactive)
[27]
  GI50: 34.8 µM (inactive)
[28]
  GI50: > 100 µM (inactive)
[29]
  GI50: 16.1 µM (inactive)
[30]
  GI50: 63 µM (inactive)
[31]
  GI50: > 100 µM (inactive)
[32]
  GI50: 29.7 µM (inactive)
[33]
  GI50: 37.2 µM (inactive)
[34]
  GI50: > 100 µM (inactive)
[35]
  GI50: 45.6 µM (inactive)
[36]
  GI50: 26.4 µM (inactive)
[37]
  GI50: 32.4 µM (inactive)
[38]
  GI50: 33 µM (inactive)
[39]
  GI50: 69.8 µM (inactive)
[40]
  GI50: 32.5 µM (inactive)
[41]
  GI50: 8.51 µM (inactive)
[42]
  GI50: 50.1 µM (inactive)
[43]
  GI50: 18.2 µM (inactive)
[44]
  GI50: 33.2 µM (inactive)
[45]
  GI50: 39.6 µM (inactive)
[46]
  GI50: 40.6 µM (inactive)
[47]
  GI50: 33.2 µM (inactive)
[48]
  GI50: 11.5 µM (inactive)
[49]
  GI50: 40 µM (inactive)
[50]
  GI50: 81.3 µM (inactive)
[51]
  GI50: 25.1 µM (inactive)
[52]
  GI50: 28.6 µM (inactive)
[53]
  GI50: 28.6 µM (inactive)
[54]
  GI50: 24 µM (inactive)
[55]
  GI50: 29.7 µM (inactive)
[56]
  GI50: 10.3 µM (inactive)
[57]
  GI50: 44.1 µM (inactive)
[58]
  GI50: 26.4 µM (inactive)
